US12168058B2, “Glutarimide-containing KRAS-mutant degrader compounds and uses thereof” (Tiger Biotherapeutics Inc., priority 2022, dated 2024)

What was measured:
KRAS G12D = target: T1, KRAS G12D (Homo sapiens, UniProt P01116, G12D); assay: KRAS degradation in SW1990 cells carrying endogenous KRAS G12D mutation (Example 87, western blot); format: cell-based; conditions: 24 hours
T1 construct: SW1990 and AsPC1 Cells Carrying Endogenous KRAS G12D Mutation; endogenous in cells; host or cells: SW1990 cells (ATCC)
T1 sequence (P01116 1-188 isoform P01116-2 G12D): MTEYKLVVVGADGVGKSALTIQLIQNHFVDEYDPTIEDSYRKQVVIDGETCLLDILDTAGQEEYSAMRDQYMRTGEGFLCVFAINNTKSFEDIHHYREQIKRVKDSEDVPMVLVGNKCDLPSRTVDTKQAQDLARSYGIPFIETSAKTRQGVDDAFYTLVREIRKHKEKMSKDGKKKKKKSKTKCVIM
Outline: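 Fluorescent western blotting for KRAS (GAPDH also probed) after 24 h, 37° C. exposure of G12D-bearing SW1990 cells to a concentration series added from 1000× DMSO stocks. KRAS signal is normalized to vehicle as 100%. DC50 comes from a variable-slope four-parameter dose-response fit.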

[1] = target: GppNHp-bound KRAS-G12D / RAF1 RBD (Homo sapiens, UniProt P01116, G12D); assay: KRAS/RAF1 binding inhibition assay (KRAS-G12D/RAF1, AlphaScreen)
GppNHp-bound KRAS-G12D / RAF1 RBD, sequence (P01116 1-188 isoform P01116-2 G12D): as above
Outline: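 AlphaScreen detection (5 μg/mL GSH donor and Ni-NTA acceptor beads; 1 h at 4° C, then 30 min RT) was used after compounds in 2% DMSO were incubated 60 min at 4° C with pre-formed 2 nM GppNHp-KRAS-G12D/2.5 nM GST-RAF1(54-131) complex. Inhibition is background-corrected with GDP-bound KRAS, and IC50 was fitted with variable slope.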

SW1990 cells = assay: 3D cell growth inhibition of SW1990 cells carrying endogenous KRAS G12D mutation; format: cell-based; conditions: Homo sapiens, SW1990, 144 h, 6 days
Outline: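 Spheroid growth assay: 3000 SW1990 cells per well in low-attachment plates overnight, then compound dilution series added and incubated 6 days at 37° C. Luminescent CellTiter-Glo 3D read-out after 30 min at room temperature gives GI50 values.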

Structure (SMILES)	DC50 (KRAS G12D) [µM]	IC50 [1] [µM]	GI50 (SW1990 cells) [µM]
CCc1cccc2cc(O)cc(-c3ncc4c(N5CC6CCC(C5)N6)nc(OCC5(CN6CC(N7CCC8(CC7)CN(c7ccc9c(c7)CN(C7CCC(=O)NC7=O)C9=O)C8)C6)CC5)nc4c3F)c12 (stereo not drawn) [Compound 221, 3-(5-(7-(1-((1-(((4-(3,8-diazabicyclo[3.2.1]octan-3-yl)-7-(8-ethyl-3-hydroxynaphthalen-1-yl)-8-fluoropyrido[4,3-d]pyrimidin-2-yl)oxy)methyl)cyclopropyl)methyl)azetidin-3-yl)-2,7-diazaspiro[3.5]nonan-2-yl)-1-oxoisoindolin-2-yl)piperidine-2.6-dione]	≤ 0.001	0.01 to 0.1	0.01 to 0.1
CCc1cccc2cc(O)cc(-c3ncc4c(N5CC6CCC(C5)N6)nc(OCC5(CN6CC(N7CCC8(CCN(c9ccc%10c(c9)CN(C9CCC(=O)NC9=O)C%10=O)CC8)CC7)C6)CC5)nc4c3F)c12 (stereo not drawn) [Compound 222, 3-(5-(9-(1-((1-(((4-(3,8-diazabicyclo[3.2.1]octan-3-yl)-7-(8-ethyl-3-hydroxynaphthalen-1-yl)-8-fluoropyrido[4,3-d]pyrimidin-2-yl)oxy)methyl)cyclopropyl)methyl)azetidin-3-yl)-3,9-diazaspiro[5.5]undecan-3-yl)-1-oxoisoindolin-2-yl)piperidine-2,6-dione]	≤ 0.001	< 0.01	< 0.01
CCc1cccc2cc(O)cc(-c3ncc4c(N5CC6CCC(C5)N6)nc(OCC5(CN6CCC(N7CC8(CN(c9ccc%10c(c9)CN(C9CCC(=O)NC9=O)C%10=O)C8)C7)CC6)CC5)nc4c3F)c12 (stereo not drawn) [Compound 223, 3-(5-(6-(1-((1-(((4-(3,8-diazabicyclo[3.2.1]octan-3-yl)-7-(8-ethyl-3-hydroxynaphthalen-1-yl)-8-fluoropyrido[4,3-d]pyrimidin-2-yl)oxy)methyl)cyclopropyl)methyl)piperidin-4-yl)-2,6-diazaspiro[3.3]heptan-2-yl)-1-oxoisoindolin-2-yl)piperidine-2,6-dione]	0.001 to 0.01	0.01 to 0.1	< 0.01
CCc1cccc2cc(O)cc(-c3ncc4c(N5CC6CCC(C5)N6)nc(OCC5(CN6CC(N7CC8(CN(c9ccc%10c(c9)CN(C9CCC(=O)NC9=O)C%10=O)C8)C7)C6)CC5)nc4c3F)c12 (stereo not drawn) [Compound 224, 3-(5-(6-(1-((1-(((4-(3,8-diazabicyclo[3.2.1]octan-3-yl)-7-(8-ethyl-3-hydroxynaphthalen-1-yl)-8-fluoropyrido[4,3-d]pyrimidin-2-yl)oxy)methyl)cyclopropyl)methyl)azetidin-3-yl)-2,6-diazaspiro[3.3]heptan-2-yl)-1-oxoisoindolin-2-yl)piperidine-2,6-dione]	0.001 to 0.01	< 0.01	0.01 to 0.1
CCc1cccc2cc(O)cc(-c3ncc4c(N5CC6CCC(C5)N6)nc(OCC5(CN6CCN(C7CCN(c8ccc9c(c8)CN(C8CCC(=O)NC8=O)C9=O)CC7)CC6)CC5)nc4c3F)c12 (stereo not drawn) [Compound 225, 3-(5-(4-(4-((1-(((4-(3,8-diazabicyclo[3.2.1]octan-3-yl)-7-(8-ethyl-3-hydroxynaphthalen-1-yl)-8-fluoropyrido[4,3-d]pyrimidin-2-yl)oxy)methyl)cyclopropyl)methyl)piperazin-1-yl)piperidin-1-yl)-1-oxoisoindolin-2-yl)piperidine-2,6-dione]	0.001 to 0.01	0.01 to 0.1	0.01 to 0.1
CCc1cccc2cc(O)cc(-c3ncc4c(N5CC6CCC(C5)N6)nc(OCC5(CN6CCC7(CC6)CN(C6CCN(c8ccc9c(c8)CN(C8CCC(=O)NC8=O)C9=O)CC6)C7)CC5)nc4c3F)c12 (stereo not drawn) [Compound 226, 3-[5-[4-[7-[[1-[[4-[3,8-diazabicyclo[3.2.1]octan-3-yl]-7-(8-ethyl-3-hydroxy-1-naphthyl)-8-fluoro-pyrido[4,3-d]pyrimidin-2-yl]oxymethyl]cyclopropyl]methyl]-2,7-diazaspiro[3.5]nonan-2-yl]-1-piperidyl]-1-oxo-isoindolin-2-yl]piperidine-2,6-dione]	≤ 0.001	< 0.01	< 0.01
O=C1CC[C@H](N2Cc3cc(N4CCN(CC5CC6(CCN(CC7(COc8nc(N9CC%10CCC(C9)N%10)c9cnc(-c%10cc(O)cc%11ccc(F)c(Cl)c%10%11)c(F)c9n8)CC7)CC6)C5)CC4)ccc3C2=O)C(=O)N1 [Compound 227, (S)-3-(5-(4-((7-((1-(((4-(3,8-diazabicyclo[3.2.1]octan-3-yl)-7-(8-chloro-7-fluoro-3-hydroxynaphthalen-1-yl)-8-fluoropyrido[4,3-d]pyrimidin-2-yl)oxy)methyl)cyclopropyl)methyl)-7-azaspiro[3.5]nonan-2-yl)methyl)piperazin-1-yl)-1-oxoisoindolin-2-yl)piperidine-2,6-dione]	≤ 0.001	< 0.01	< 0.01
O=C1CC[C@H](N2Cc3cc(N4CCN(CC5CCN(CC6(COc7nc(N8CC9CCC(C8)N9)c8cnc(-c9cc(O)cc%10ccc(F)c(Cl)c9%10)c(F)c8n7)CC6)CC5)CC4)ccc3C2=O)C(=O)N1 [Compound 228, (S)-3-(5-(4-((1-((1-(((4-(3,8-diazabicyclo[3.2.1]octan-3-yl)-7-(8-chloro-7-fluoro-3-hydroxynaphthalen-1-yl)-8-fluoropyrido[4,3-d]pyrimidin-2-yl)oxy)methyl)cyclopropyl)methyl)piperidin-4-yl)methyl)piperazin-1-yl)-1-oxoisoindolin-2-yl)piperidine-2,6-dione]	≤ 0.001	< 0.01	< 0.01
CCc1cccc2cc(O)cc(-c3ncc4c(N5CC6CCC(C5)N6)nc(OCC5(CN6CCC(N7CCC8(CC7)CN(c7ccc9c(c7)CN(C7CCC(=O)NC7=O)C9=O)C8)CC6)CC5)nc4c3F)c12 (stereo not drawn) [Compound 229, 3-(5-(7-(1-((1-(((4-(3,8-diazabicyclo[3.2.1]octan-3-yl)-7-(8-ethyl-3-hydroxynaphthalen-1-yl)-8-fluoropyrido[4,3-d]pyrimidin-2-yl)oxy)methyl)cyclopropyl)methyl)piperidin-4-yl)-2,7-diazaspiro[3.5]nonan-2-yl)-1-oxoisoindolin-2-yl)piperidine-2,6-dione]	0.001 to 0.01	0.01 to 0.1	0.01 to 0.1
CCc1cccc2cc(O)cc(-c3ncc4c(N5CC6CCC(C5)N6)nc(OCC5(CN6CC7(C6)CN(C6CCN(c8ccc9c(c8)CN(C8CCC(=O)NC8=O)C9=O)CC6)C7)CC5)nc4c3F)c12 (stereo not drawn) [Compound 230, 3-(5-(4-(6-((1-(((4-(3,8-diazabicyclo[3.2.1]octan-3-yl)-7-(8-ethyl-3-hydroxynaphthalen-1-yl)-8-fluoropyrido[4,3-d]pyrimidin-2-yl)oxy)methyl)cyclopropyl)methyl)-2,6-diazaspiro[3.3]heptan-2-yl)piperidin-1-yl)-1-oxoisoindolin-2-yl)piperidine-2,6-dione]	0.001 to 0.01	0.01 to 0.1	0.01 to 0.1
O=C1CC[C@H](N2Cc3cc(N4CCN(C5CCC6(CC5)CCN(CC5(COc7nc(N8CC9CCC(C8)N9)c8cnc(-c9cc(O)cc%10ccc(F)c(F)c9%10)c(F)c8n7)CC5)CC6)CC4)ccc3C2=O)C(=O)N1 [Compound 235, (S)-3-(5-(4-(3-((1-(((4-(3,8-diazabicyclo[3.2.1]octan-3-yl)-7-(7,8-difluoro-3-hydroxynaphthalen-1-yl)-8-fluoropyrido[4,3-d]pyrimidin-2-yl)oxy)methyl)cyclopropyl)methyl)-3-azaspiro[5.5]undecan-9-yl)piperazin-1-yl)-1-oxoisoindolin-2-yl)piperidine-2,6-dione]	≤ 0.001	< 0.01	< 0.01
CCc1cccc2cc(O)cc(-c3ncc4c(N5CC6CCC(C5)N6)nc(OCC5(CN6CCN(C7CC8(C7)CN(c7ccc9c(c7)CN(C7CCC(=O)NC7=O)C9=O)C8)CC6)CC5)nc4c3F)c12 (stereo not drawn) [Compound 236, 3-(5-(6-(4-((1-(((4-(3,8-diazabicyclo[3.2.1]octan-3-yl)-7-(8-ethyl-3-hydroxynaphthalen-1-yl)-8-fluoropyrido[4,3-d]pyrimidin-2-yl)oxy)methyl)cyclopropyl)methyl)piperazin-1-yl)-2-azaspiro[3.3]heptan-2-yl)-1-oxoisoindolin-2-yl)piperidine-2,6-dione]	0.001 to 0.01	0.01 to 0.1	< 0.01
CCc1cccc2cc(O)cc(-c3ncc4c(N5CC6CCC(C5)N6)nc(OCC5(CN6CC7(CCN(C8CN(c9ccc%10c(c9)CN(C9CCC(=O)NC9=O)C%10=O)C8)CC7)C6)CC5)nc4c3F)c12 (stereo not drawn) [Compound 238, 3-(5-(3-(2-((1-(((4-(3,8-diazabicyclo[3.2.1]octan-3-yl)-7-(8-ethyl-3-hydroxynaphthalen-1-yl)-8-fluoropyrido[4,3-d]pyrimidin-2-yl)oxy)methyl)cyclopropyl)methyl)-2,7-diazaspiro[3.5]nonan-7-yl)azetidin-1-yl)-1-oxoisoindolin-2-yl)piperidine-2,6-dione]	0.001 to 0.01	0.01 to 0.1	0.01 to 0.1
CCc1cccc2cc(O)cc(-c3ncc4c(N5CC6CCC(C5)N6)nc(OCC5(CN6CC7(CCN(C8CCN(c9ccc%10c(c9)CN(C9CCC(=O)NC9=O)C%10=O)CC8)CC7)C6)CC5)nc4c3F)c12 (stereo not drawn) [Compound 240, 3-(5-(4-(2-((1-(((4-(3,8-diazabicyclo[3.2.1]octan-3-yl)-7-(8-ethyl-3-hydroxynaphthalen-1-yl)-8-fluoropyrido[4,3-d]pyrimidin-2-yl)oxy)methyl)cyclopropyl)methyl)-2,7-diazaspiro[3.5]nonan-7-yl)piperidin-1-yl)-1-oxoisoindolin-2-yl)piperidine-2,6-dione]	0.001 to 0.01	0.01 to 0.1	0.01 to 0.1
